Data set [1] is described as follows: Antiproliferative activity against mouse eEND.2 cells after 24 hrs by WST-1 assay. In kind it is cell-based. On the technique in general: Tetrazolium dyes change colour on reduction, which living cells bring about.
The nature of data set [2]: MRT (0 to 24 hrs) in Sprague-Dawley rat at 50 mg/kg, po by HPLC-DAD-IT-TOF-MS analysis. In kind it is ADME, organism-based. Particulars: in vivo.
Data set [3] has as its system HUVEC. The data set is described as follows: Antiproliferative activity against HUVEC after 48 hrs. In kind it is functional, cell-based. Particulars: Homo sapiens.
For data set [4], the system named is NCI-H460. Put plainly: Antiproliferative activity against human NCI-H460 cells after 24 hrs by WST-1 assay. It is filed as functional, cell-based. Particulars: NCI-H460, 24 h.
Data set [5] in a line: Tmax in Sprague-Dawley rat at 50 mg/kg, po by LC-MS analysis. It is filed as ADME, organism-based. The following applies: in vivo.
Data set [6] can be described thus: Toxicity in ip dosed ICR mouse. Particulars: in vivo. In kind it is organism-based.
Data set [7] concerns HUVEC. Put plainly: Antimigratory activity against HUVEC at 20 umol/L after 24 hrs relative to control. In kind it is functional, Homo sapiens.
The subject of data set [8] is ECa-109 cell line. The data set is described as follows: Antiproliferative activity against human EC109 cells after 48 hrs by MTT assay. It is filed as functional, cell-based. Particulars: ECa-109, 48 h.
Data set [9] is described as follows: Elimination half life in ICR mouse at 5 mg/kg, iv by UPLC-MS/MS analysis. In kind it is ADME, organism-based. The following applies: in vivo, read-out: beta t1/2 (converted).
Data set [10] relates to HeLa. Put plainly: Antiproliferative activity against human HeLa cells after 48 hrs by MTT assay. It is filed as functional, cell-based.
A short description of data set [11]: AUC (0 to 24 hrs) in Sprague-Dawley rat at 50 mg/kg, po by HPLC-DAD-IT-TOF-MS analysis. Also on record: dose 50 mg/kg, time < 24 hr, route oral. It is filed as ADME, organism-based. Particulars: in vivo.
A short description of data set [12]: MRT (0 to infinity) in Sprague-Dawley rat at 50 mg/kg, po by HPLC-DAD-IT-TOF-MS analysis. It is filed as ADME, organism-based. Particulars: in vivo.
A short description of data set [13]: Antiproliferative activity against human A2780DDP cells after 48 hrs. In kind it is functional, cell-based.
The test system of the next data set is JEG-3. Put plainly: Antiproliferative activity against human JEG3 cells after 24 hrs by MTT assay. It is filed as functional, cell-based. Particulars: JEG-3, 24 h.
Data set [14] is described as follows: Antiproliferative activity against human PGCL3 cells after 24 hrs by MTT assay. In kind it is functional, cell-based.
For data set [15], the system named is HUVEC. Put plainly: Antiproliferative activity against HUVEC after 72 hrs. It is filed as functional, cell-based. Particulars: Homo sapiens.
Data set [16] can be described thus: Oral bioavailability in ICR mouse at 20 mg/kg by UPLC-MS/MS analysis. It is filed as ADME, organism-based. Particulars: in vivo.
The test system of data set [17] is HeLa. The data set is described as follows: Cytotoxicity against human HeLa cells after 24 hrs by MTT assay. It is filed as functional, cell-based.
Data set [18] can be described thus: Antiproliferative activity against human PGCL3 cells after 72 hrs by MTT assay. It is filed as functional, cell-based.
In a further data set the test system is NCI-H1299. Put plainly: Antiproliferative activity against human NCI-H1299 cells after 48 hrs by CCK-8 assay. It is filed as functional, cell-based. Particulars: NCI-H1299, 48 h.
Data set [19] in a line: Antiproliferative activity against human A2780DDP cells after 12 hrs. In kind it is functional, cell-based.
The subject of a further data set is A549. Put plainly: Antiproliferative activity against human A549 cells after 72 hrs by MTS assay. In kind it is functional, cell-based. Particulars: A549, 72 h.
The nature of data set [20]: AUC (0 to infinity) in Sprague-Dawley rat at 50 mg/kg, po by HPLC-DAD-IT-TOF-MS analysis. Particulars: in vivo. It is filed as ADME, organism-based. Set-up: dose 50 mg/kg, time infinity, route oral.
For data set [21], the system named is HepG2. The data set is described as follows: Antiproliferative activity against human HepG2 cells after 24 hrs by MTT assay. In kind it is functional, cell-based. Particulars: HepG2, 24 h.
Data set [22] in a line: Elimination half life in Sprague-Dawley rat at 5 mg/kg, iv by LC-MS analysis. It is filed as ADME, organism-based. Particulars: in vivo.
For the next data set, the system named is DU-145. Put plainly: Antiproliferative activity against human DU145 cells after 24 hrs by MTT assay. It is filed as functional, cell-based. Particulars: DU-145, 24 h.
Data set [23] in a line: Tmax in Sprague-Dawley rat at 50 mg/kg, po by HPLC-DAD-IT-TOF-MS analysis. In kind it is ADME, organism-based. Particulars: in vivo.
The nature of data set [24]: Cmax in Sprague-Dawley rat at 50 mg/kg, po by HPLC-DAD-IT-TOF-MS analysis. In kind it is ADME, organism-based. Also on record: dose 50 mg/kg, route oral. Particulars: in vivo.
The next data set deals with PC-9. Put plainly: Antiproliferative activity against human PC9 cells after 72 hrs by MTS assay. In kind it is functional, cell-based. Particulars: PC-9, 72 h.
For data set [25], the system named is HeLa. Put plainly: Antiproliferative activity against human HeLa cells after 72 hrs by MTT assay. It is filed as functional, cell-based.
Data set [26] can be described thus: Cmax in Sprague-Dawley rat at 50 mg/kg, po by LC-MS analysis. In kind it is ADME, organism-based. Set-up: dose 50 mg/kg, route oral. The following applies: in vivo.
Data set [27] can be described thus: Half life in Sprague-Dawley rat at 50 mg/kg, po by HPLC-DAD-IT-TOF-MS analysis. In kind it is ADME, organism-based. Particulars: in vivo.
Another data set has as its system SK-OV-3. Put plainly: Antiproliferative activity against human SKOV3 cells after 24 hrs by MTT assay. Particulars: SK-OV-3, 24 h. In kind it is functional, cell-based.
Data set [28] can be described thus: Volume of distribution at terminal phase in Sprague-Dawley rat at 5 mg/kg, iv by LC-MS analysis. Particulars: in vivo. In kind it is ADME, organism-based.
Data set [29] has as its system NCI-H460. The data set is described as follows: Antiproliferative activity against human NCI-H460 cells after 9 hrs by MTT assay. In kind it is functional, cell-based. The following applies: NCI-H460, 9 h.
Data set [30] in a line: Antiproliferative activity against human PGCL3 cells after 48 hrs by MTT assay. It is filed as functional, cell-based.
Data set [31] in a line: Elimination half life in ICR mouse at 20 mg/kg, po by UPLC-MS/MS analysis. The following applies: in vivo, read-out: beta t1/2 (converted). In kind it is ADME, organism-based.
Data set [32] can be described thus: Antiproliferative activity against human A2780DDP cells after 24 hrs. It is filed as functional, cell-based.
Data set [33] has as its system HUVEC. The data set is described as follows: Antiproliferative activity against HUVEC after 24 hrs. In kind it is functional, cell-based. The following applies: Homo sapiens.
In the next data set the test system is PC-3. Put plainly: Antiproliferative activity against human PC3 cells after 24 hrs by MTT assay. It is filed as functional, cell-based. Particulars: PC-3, 24 h.
Data set [34] is described as follows: Oral bioavailability in Sprague-Dawley rat at 50 mg/kg by LC-MS analysis. In kind it is ADME, organism-based. The following applies: in vivo.
The test system of a further data set is T-24. The data set is described as follows: Antiproliferative activity against human T24 cells after 24 hrs by MTT assay. In kind it is functional, cell-based. The following applies: T-24, 24 h.
Data set [35] deals with HeLa. The data set is described as follows: Antiproliferative activity against human HeLa cells after 24 hrs by MTT assay. In kind it is functional, cell-based.
Data set [36] has as its system ECa-109 cell line. Put plainly: Antiproliferative activity against human EC109 cells after 24 hrs by MTT assay. In kind it is functional, cell-based. Particulars: ECa-109, 24 h.
Data set [37] concerns HepG2. The data set is described as follows: Antiproliferative activity against human HepG2 cells. It is filed as functional, cell-based.

In brackets after ≈: the same amount, converted by molar mass.

`C[C@@H]1O[C@H]2O[C@H]3[C@@H](OC[C@H](O)[C@@H]3O)OC(=O)[C@]34CCC(C)(C)C[C@H]3C3=CC[C@@H]5[C@@]6(C)C[C@H](O)[C@H](O[C@@H]7O[C@H](CO)[C@@H](O)[C@H](O)[C@H]7O[C@@H]7OC[C@H](OC(=O)C[C@](C)(O)CC(=O)O[C@@H]1[C@@H](O[C@@H]1OC[C@@H](O)[C@H](O)[C@H]1O)[C@H]2O)[C@H](O)[C@H]7O)[C@@](C)(CO)[C@@H]6CC[C@@]5(C)[C@]3(C)CC4`: the IC50 in data set [1] came out at 12 µM; in the data set on HUVEC [3], 21.4 µM; in the data set on NCI-H460 [4] it was 23.3 µM; in the data set on ECa-109 cell line [8], 35 µM; in the data set on HeLa [10], 27.1 µM; in data set [13] it was 12 µM. Further, the IC50 in the data set on JEG-3 was found to be 8.5 µM; in [14], 15.7 µM; in the data set with HUVEC [15], 17.9 µM; with HeLa [17] it was 25 µM; in data set [18], 13.3 µM; in the data set with NCI-H1299, 10 µM. Also, the concentration for half-maximal inhibition (IC50) in [19] is 3000 nM; with A549 it was 12.3 µM; with HepG2 [21] it was 15.5 to 20 µM; in the data set with DU-145, 10 µM; in the data set with PC-9, 10.2 µM; in the data set on HeLa [25], 17.1 µM. Moreover, the IC50 in the data set on SK-OV-3 came out at 16 µM; in the data set on NCI-H460 [29] it was 20 µM; in data set [30], 14.2 µM; in data set [32] it was 6 µM; in the data set on HUVEC [33] it was 24.2 µM; in the data set on PC-3 it was 20 µM. Besides, the IC50 with T-24 is 20 µM; in the data set on HeLa [35], 34.8 µM; with ECa-109 cell line [36] it was 45 µM. In addition, the MRT last in [2] amounted to 7.02 h. Also, the Tmax turned out to be 2.75 h in data set [5] and 2.85 h in data set [23]. Moreover, in data set [6], the LD50 worked out at 18.7 mg/kg. This molecule also showed an Activity with HUVEC [7] of 58.4%. Further, the half-life in data set [9] was 408 min; in [31], 138 min. In addition, in data set [11], the AUC(0-t) at 24 h came to 8800 ng·h/mL. The molecule further yielded an MRT inf in data set [12] of 9.16 h. Moreover, the bioavailability amounted to 1% in [16] and 0.23% in data set [34]. In data set [20], this molecule registered an exposure (AUC) of 9900 ng·h/mL. Besides, the “beta t1/2” value in [22] came out at 6.7 h. The results for the Cmax in data set [24] and in data set [26] were 1342 ng/mL and 675 ng/mL, respectively. In addition, the t1/2 in data set [27] is 4.6 h. In addition, the Vbeta in data set [28] came to 0.106 L/kg.

Consider `C[C@@H]1O[C@H]2O[C@H]3[C@@H](OC[C@H](O)[C@@H]3O)OC(=O)[C@]34CCC(C)(C)C[C@H]3C3=CC[C@@H]5[C@@]6(C)C[C@H](O)[C@H](O[C@@H]7O[C@H](CO)[C@@H](O)[C@H](O)[C@H]7O[C@@H]7OC[C@H](OC(=O)C[C@](C)(O)CC(=O)O[C@@H]1[C@@H](O[C@@H]1OC[C@@H](O)[C@H](O)[C@H]1O)[C@H]2O)[C@H](O)[C@H]7O)[C@@](C)(CO)[C@@H]6CC[C@@]5(C)[C@]3(C)C[C@H]4O`, for which the LD50 in [6] stood at 21 mg/kg. In the data set with HepG2 [37], this molecule gave an IC50 of 4.05 µg/mL (≈ 3.03 µM).

As to `C[C@@H]1O[C@H]2O[C@H]3[C@@H](OC[C@H](O)[C@@H]3O)OC(=O)[C@]34CCC(C)(C)C[C@H]3C3=CC[C@@H]5[C@@]6(C)C[C@H](O)[C@H](O[C@@H]7O[C@H](CO)[C@@H](O)[C@H](O)[C@H]7O[C@@H]7O[C@H](COC(=O)C[C@](C)(O)CC(=O)O[C@@H]1[C@@H](O[C@@H]1OC[C@@H](O)[C@H](O)[C@H]1O)[C@H]2O)[C@@H](O)[C@H](O)[C@H]7O)[C@@](C)(CO)[C@@H]6CC[C@@]5(C)[C@]3(C)C[C@H]4O`, the LD50 in data set [6] worked out at 15 mg/kg.

By IC50 is commonly meant the point on the concentration scale where inhibition reaches its midpoint. Low readings indicate inhibition by little substance, high ones a need for much substance. In general, MRT last refers to the average time that molecules of a dose stay in the body. The Tmax is the time at which the peak concentration occurs. Broadly, the LD50 is the dose at which mortality reaches 50%. A word on the AUC(0-t): it is the area under the concentration-time curve up to a stated or last time point. A high value points to high exposure. Broadly, the MRT inf is the average time that molecules of a dose stay in the body. A word on the bioavailability: it is the share of a dose that reaches the circulation, judged against a reference dose that is usually intravenous. Low readings indicate little systemic uptake, high ones much systemic uptake. The AUC is the area under the concentration-time curve, a measure of exposure. In general, Cmax refers to the highest concentration seen after dosing.

For the origin of these results see ChEMBL document CHEMBL4325896, “The potential role of tubeimosides in cancer prevention and treatment” (Eur J Med Chem, 2019).
